Experimental data as given in EP0549006A2, “Ammonium and phosphonium salts and their use as biocides” (FMC CORPORATION (UK) LIMITED, priority 1991, dated 1993).

Experiments:
[1] = tested on: Bacillus subtilis; test: Bacterial minimal inhibiting concentration (MIC) in liquid culture, turbidity evaluation; assay type: cell-based; conditions: strain A: Bacillus subtilis; Caso Peptone Bouillon, 24 hours at 30 °C; tested at 10, 30, 60 and 100 mg/l
[2] = tested on: Serratia marcescens; test: as above; assay type: cell-based; conditions: strain B: Serratia marcescens; Caso Peptone Bouillon, 24 hours at 30 °C; tested at 10, 30, 60 and 100 mg/l
[3] = tested on: Enterobacter aerogenes; test: as above; assay type: cell-based; conditions: strain C: Enterobacter aerogenes, Caso Peptone Bouillon, 24 hours at 30 °C, tested at 10, 30, 60 and 100 mg/l
[4] = tested on: Alcaligenes dentrificans; test: as above; assay type: cell-based; conditions: strain D: Alcaligenes dentrificans; Caso Peptone Bouillon, 24 hours at 30 °C; tested at 10, 30, 60 and 100 mg/l
[5] = tested on: Proteus vulgaris; test: as above; assay type: cell-based; conditions: strain E: Proteus vulgaris; Caso Peptone Bouillon, 24 hours at 30 °C; tested at 10, 30, 60 and 100 mg/l
[6] = tested on: Pseudomonas fluorescens; test: as above; assay type: cell-based; conditions: strain F: Pseudomonas fluorescens; Caso Peptone Bouillon, 24 hours at 30 °C; tested at 10, 30, 60 and 100 mg/l
[7] = tested on: bacterial mixed culture; assay type: cell-based; conditions: 24 hours at 30 °C in Tyrode solution, growth on Caso Peptone plates; for Effect after 24 h 10: 10 mg/l; for Effect after 24 h 30: 30 mg/l; for Effect after 24 h 60: 60 mg/l
[8] = Solubility of the isolated product (water, alcohol); assay type: physicochemical

Compound	MIC [1] [µg/mL]	MIC [2] [µg/mL]	minimal inhibiting concentration C [3] [µg/mL]	MIC [4] [µg/mL]	MIC [5] [µg/mL]	MIC [6] [µg/mL]	Effect after 24 h 10 [7]	Effect after 24 h 30 [7]	Effect after 24 h 60 [7]	solubility in water [8]	minimal inhibiting concentration A [1] [µg/mL]	minimal inhibiting concentration B [2] [µg/mL]	minimal inhibiting concentration D [4] [µg/mL]	minimal inhibiting concentration E [5] [µg/mL]	minimal inhibiting concentration F [6] [µg/mL]	Effect after 24 h 100 mg/l [7]	solubility in alcohol ([8]; alcohol)	MIC ([3]; Klebsiella aerogenes, 24 h) [µg/mL]	solubility ([8]; in water) [µg/mL]
CCCCCCCCCCCCCC[P+](CCCC)(CCCC)CCCC [Example 2, [(n-C4H9)3P n-C14H29]^+HSO4-]	10	30	10	10	10	30	-	-	-	optionally miscible with water									
CCCCCCCCCCCCCC[P+](CCCC)(CCCC)CCCC [Example 3, [(n-C4H9)3P n-C14H29]^+NO3^-]			10				(-) (1-10 colonies, bacteria killed for the most part)	(-) (1-10 colonies, bacteria killed for the most part)	-	difficultly soluble in water	10	30	10	10	30	-	readily soluble in alcohol		
CCCCCCCCCCCCCC[N+](C)(C)Cc1ccccc1 [Example 5, [(CH3)2N(CH2C6H5)n-C14H29]^+[S2P(O^iC3H7)2]^-]	< 100	< 100		< 100	< 100	< 100		(-) (1-10 colonies, bacteria killed for the most part)	-	difficultly soluble in water						-		< 100	
CCCCCCCCCCCCCC[P+](CCCC)(CCCC)CCCC [Example 6, ([n-C4H9)3P n-C14H29]^+[B(C6H5)4]^-]																			≤ 20
CCCCCCCCCCCCCC[P+](CCCC)(CCCC)CCCC [Example 7, [(n-C4H9)3P n-C14H29]^+[lO4]^-]			30				(-) (1-10 colonies, bacteria killed for the most part)	-	-	difficultly soluble in water	10	30	10	10	30	-			
[(CH3)2N(CH2C6H5) n-C14H29]3^+[Fe(CN)6]^3- [Example 4]			<100								<100	<100	<100	<100	<100				
[(n-C4H9)3P n-C14H29]^+(ICIBr]^- [Example 9]			30				-	-	-		10	30	10	10	30				
[(n-C4H9)3P n-C, 4H29]^+[ICI2]^- [Example 8]			30				-	-	-		10	30	10	10	30				
[(n-C4H9)3P n-G14H29]^+SCN^- [Example 1]			10				-	-	-		10	30	10	10	30	-			
